{
  "source": "the NIST ThermoML archive (doi:10.1016/j.jct.2019.01.027)",
  "conditions": "Liquid, Ebulliometric method (Recirculating still)",
  "note": "Numbers after ± are expanded uncertainties.",
  "data": [
    {"compound": "Cc1ccc(C)cc1", "note": "[1,4-dimethylbenzene]", "values": [
      {"measurement": "vapor or sublimation pressure", "setting": "411.45 K", "result": "101.3 ± 1.2", "unit": "kPa"}
    ]},
    {"compound": "CC(=O)OCC(C)C", "note": "[2-methylpropyl ethanoate]", "values": [
      {"measurement": "vapor or sublimation pressure", "setting": "389.55 K", "result": "101.3 ± 1.2", "unit": "kPa"}
    ]},
    {"compound": "CCCCOC(=O)CC", "note": "[butyl propanoate]", "values": [
      {"measurement": "vapor or sublimation pressure", "setting": "418.35 K", "result": "101.3 ± 1.2", "unit": "kPa"}
    ]},
    {"compound": "COC(=O)OC", "note": "[dimethyl carbonate]", "values": [
      {"measurement": "vapor or sublimation pressure", "setting": "363.35 K", "result": "101.3 ± 1.2", "unit": "kPa"}
    ]},
    {"compound": "CCO", "note": "[ethanol]", "values": [
      {"measurement": "vapor or sublimation pressure", "setting": "351.45 K", "result": "101.3 ± 1.2", "unit": "kPa"}
    ]}
  ]
}
